Measured values taken from patent US6821980B1, “Substituted 5-benzyl-2,4-diaminopyrimidines” (Basilea Pharmaceutica AG, priority 1999, dated 2004).
≈ marks a conversion by molar mass, not a printed value. Read-outs that look alike come from different tables or passages of the source.

What was measured:
[1] = system: Streptococcus pneumoniae 1/1; assay: MIC against Streptococcus pneumoniae 1/1; assay type: cell-based
[2] = biological target: T1, purified DHFR of strain Sp1/1 of Streptococcus pneumoniae (Streptococcus pneumoniae serotype 4, UniProt Q54801); assay type: biochemical; conditions: IC50 against purified DHFR of strain Sp1/1
T1 sequence (Q54801 1-168 I100L): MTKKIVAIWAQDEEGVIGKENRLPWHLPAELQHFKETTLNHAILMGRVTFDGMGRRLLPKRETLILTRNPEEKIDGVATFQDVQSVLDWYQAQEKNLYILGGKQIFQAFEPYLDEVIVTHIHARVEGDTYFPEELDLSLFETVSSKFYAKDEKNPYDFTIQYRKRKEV

[3] = system: Staphylococcus aureus 101; assay: MIC against Staphylococcus aureus 101; assay type: cell-based; conditions: Staphylococcus aureus 101, MRSA- and trimethoprim-resistant, clinical isolate; for MIC: read-out: MIC Sa101
[4] = biological target: purified DHFR of strain 157/4696 of Staphylococcus aureus (Staphylococcus aureus, UniProt P13955); assay: biochemical
[5] = Table 2, Streptococcus pneumoniae 1/1, trimethoprim- and penicillin-resistant, serotype 6, clinical isolate, read-out: MIC Sp1/1
[6] = Table 2, Streptococcus pneumoniae 1/1, trimethoprim- and penicillin-resistant, serotype 6, clinical isolate
[7] = Table 2, IC50 against purified DHFR of strain 157/4696 (highly trimethoprim-resistant; clinical isolate), read-out: DHFR Sa1
[8] = Table 1, Streptococcus pneumoniae 1/1, trimethoprim- and penicillin-resistant, serotype 6, clinical isolate, read-out: MIC Sp1/1

Chain of purified DHFR of strain 157/4696 of Staphylococcus aureus (P13955 whole entry): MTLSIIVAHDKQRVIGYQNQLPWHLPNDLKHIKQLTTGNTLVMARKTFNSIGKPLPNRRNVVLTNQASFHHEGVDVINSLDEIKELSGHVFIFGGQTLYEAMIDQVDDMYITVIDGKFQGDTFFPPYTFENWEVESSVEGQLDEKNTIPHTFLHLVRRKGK

CCOc1cc(Cc2cnc(N)nc2N)cc(OCC(C)(C)COC)c1-c1ccc(O)cc1 [Example 08-a, 4′-(2,4-Diamino-pylimidin-5-ylmethyl)-6′-ethoxy-2′-(3-methoxy-2,2-dimethyl-propoxy)-biphenyl-4-ol]
MIC [1, 5]: 2 µg/mL (≈ 4.42 µM)
IC50 ([2]; Table 2): 18 nM
MIC ([3]; Table 2): 8 µg/mL (≈ 17.7 µM)
IC50 [4]: 1700 nM

CCOc1cc(Cc2cnc(N)nc2N)cc(OS(=O)(=O)CC(C)(C)C)c1-c1ccc(N)cc1 [Example 37-c, 2,2-Dimethyl-propane-1-sulphonic acid 4′-amino-4-(2,4-diamino-pyrimidin-5-ylmethyl)-6-ethoxy-biphenyl-2-yl ester]
MIC [1, 5]: 0.5 µg/mL (≈ 1.03 µM)
IC50 ([2]; Table 2): 1.8 nM
MIC ([3]; Table 2): 4 µg/mL (≈ 8.24 µM)
IC50 [4]: 580 nM

CCOc1cc(Cc2cnc(N)nc2N)cc(OCC)c1-c1ccc(S(N)(=O)=O)cc1 [Example 04-o, 4′-(2,4-Diamino-gyrimidin-5-ylmethyl)-2′,6′-diethoxy-biphenyl-4-sulphonic acid amide]
MIC [1, 5]: 8 µg/mL (≈ 18 µM)
IC50 ([2]; Table 2): 60 nM
MIC ([3]; Table 2): 8 µg/mL (≈ 18 µM)
IC50 [4]: 1300 nM

CCOc1cc(Cc2cnc(N)nc2N)cc(OC2CCCC2)c1-c1ccc(O)cc1 [Example 08-j, 2′-Cyclopentylox-4′-(2,4-diamino-pyrimidin-5-ylmethyl)-6′-ethoxy-biphenyl-4-ol]
MIC [1, 5]: 2 µg/mL (≈ 4.76 µM)
IC50 ([2]; Table 2): 26 nM
MIC ([3]; Table 2): 2 µg/mL (≈ 4.76 µM)
IC50 [4]: 1600 nM

CCOc1cc(Cc2cnc(N)nc2N)cc(OS(=O)(=O)CC(C)(C)OC)c1-c1ccc(N)c(F)c1 [Example 39-c, (2-Methoxg-2-methyl-propane)-1-sulphonic acid 4′-amino-4-(2,4-diamino-pyrimidin-5-ylmethyl)-6-ethoxy-3′-fluoro-4-ylmethyl-biphenyl-2-yl ester]
MIC Sp1/1 [1, 6]: 1 µg/mL (≈ 1.92 µM)
IC50 ([2]; Table 2): 14 nM
MIC Sa101 ([3]; Table 2): 8 µg/mL (≈ 15.4 µM)
IC50 [4, 7]: 1000 nM

CCOc1cc(Cc2cnc(N)nc2N)cc(OC2CCC2)c1-c1ccc2c(c1)OCO2 [Example 10-e, 5-(4-Benzo[1.31]dioxol-5-yl-3-cyclobutoxy-5-ethoxy-benzyl)-pyrmidine-2,4-diamine]
MIC [1, 5]: 8 µg/mL (≈ 18.4 µM)
IC50 ([2]; Table 2): 50 nM
MIC ([3]; Table 2): 8 µg/mL (≈ 18.4 µM)
IC50 [4]: 1800 nM

CCOc1cc(Cc2cnc(N)nc2N)cc(OCC(C)(C)C=CC#N)c1-c1cccc(N)c1 [Example 07-f, (E)-5-[3′-Amino-4-(2,4-diamino-pyrimidin-5-ylmeth)-6-ethoxy-biphenyl-2-yloxy]-4,4-dimethyl-pent-2-ene-nitrile]
MIC ([1]; Streptococcus pneumoniae, 1/1, read-out: MIC Sp1/1): 2 µg/mL (≈ 4.36 µM)
IC50 ([2]; Table 2): 55 nM
MIC ([3]; Table 2): 8 µg/mL (≈ 17.4 µM)
IC50 [4]: 750 nM

CCOc1cc(Cc2cnc(N)nc2N)cc(OS(=O)(=O)N(C)C)c1-c1ccc(NC)cc1 [Example 26-a, Dimethylsulphamic acid 4-(2,4-diamino-pyrimidin-5-ylmethyl)-6-ethoxy-4′-methylamino-biphenyl-2-yl ester]
MIC [1, 5]: 1 µg/mL (≈ 2.12 µM)
IC50 ([2]; Table 2): 2.1 nM
MIC ([3]; Table 2): 1 µg/mL (≈ 2.12 µM)
IC50 [4]: 130 nM

CCOc1cc(Cc2cnc(N)nc2N)cc(OS(=O)(=O)N2CCOCC2)c1-c1ccc(NC)cc1 [Example 26c, Morpholine-4-sulphonic acid 4-(2,4-diamino-pyrimidin-5-ylmethyl)-6-ethoxy-4′-methylamino-biphenyl-2-yl ester]
MIC [1, 8]: 0.5 µg/mL (≈ 0.972 µM)
IC50 ([2]; Table 1): 3.2 nM
MIC ([3]; Table 1): 1 µg/mL (≈ 1.94 µM)
IC50 [4]: 56 nM

CCOc1cc(Cc2cnc(N)nc2N)cc(OS(=O)(=O)CC(C)(C)C)c1-c1ccc(NCCO)cc1 [Example 37-d, 2,2-Dimethyl-propane-1-sulphonic acid 4-(2,4-diamino-pyrimidin-5-ylmethyl)-6-ethoxy-4′-(2-hydroxy-ethylamino)-biphenyl-2-yl ester]
MIC [1, 5]: 0.25 µg/mL (≈ 0.472 µM)
IC50 ([2]; Table 2): 1.5 nM
MIC ([3]; Table 2): 8 µg/mL (≈ 15.1 µM)
IC50 [4]: 290 nM

CCOc1cc(Cc2cnc(N)nc2N)cc(OS(=O)(=O)C(C)CC)c1-c1ccc(N)c(C)c1 (stereo not shown) [Example 35e, Butane-2-sulphonic acid 4′-amino-4-(2,4-diamino-pyrimidin-5-ylmethyl)-6-ethoxy-3′-methyl-biphenyl-2-yl ester]
MIC [1, 8]: 0.5 µg/mL (≈ 1.03 µM)
IC50 ([2]; Table 1): 4.6 nM
MIC ([3]; Table 1): 1 µg/mL (≈ 2.06 µM)
IC50 [4]: 62 nM

CCOc1cc(Cc2cnc(N)nc2N)cc(OS(=O)(=O)N(CC)CC)c1-c1ccc(NC)cc1 [Example 26-f, Diethylsulphamic acid 4-(2,4-diamino-pyrimidin-5-ylmethyl)-6-ethoxy-4′-methylamino-biphenyl-2-yl ester]
MIC [1, 5]: 1 µg/mL (≈ 2 µM)
IC50 ([2]; Table 2): 8.8 nM
MIC ([3]; Table 2): 2 µg/mL (≈ 4 µM)
IC50 [4]: 230 nM

CCOc1cc(Cc2cnc(N)nc2N)cc(OS(=O)(=O)N(C)C)c1-c1ccc(N)cc1 [Example 22-a, Dimethylsulphamic acid 4′-amino-4-(2,4-diamino-pyrimidin-5-ylmethyl)-6-ethoxy-biphenyl-2-yl ester]
MIC [1, 5]: 1 µg/mL (≈ 2.18 µM)
IC50 ([2]; Table 2): 3.1 nM
MIC ([3]; Table 2): 2 µg/mL (≈ 4.36 µM)
IC50 [4]: 48 nM

CCOc1cc(Cc2cnc(N)nc2N)cc(OS(=O)(=O)CC)c1-c1cccc(N)c1 [Example 14-b, Ethanesulphonic acid 3′-amino-4-(2,4-diamino-pyrimidin-5-ylmethyl)-6-ethoxy-biphenyl-2-yl ester]
MIC [1, 5]: 2 µg/mL (≈ 4.51 µM)
IC50 ([2]; Table 2): 19 nM
MIC ([3]; Table 2): 2 µg/mL (≈ 4.51 µM)
IC50 [4]: 140 nM

CCOc1cc(Cc2cnc(N)nc2N)cc(OCCC2CCCCO2)c1-c1cccc(N)c1 (racemic) [Example 07-h, (RS)-5-[3′-Amino-6-ethoxy-2-[2-(tetrahydro-pyran-2-yl)-ethoxy]-biphenyl-4-ylmethyl]-2yrimidine-2,4-diamine]
MIC [1, 5]: 2 µg/mL (≈ 4.31 µM)
IC50 ([2]; Table 2): 27 nM
MIC ([3]; Table 2): 8 µg/mL (≈ 17.3 µM)
IC50 [4]: 2200 nM

CCOc1cc(Cc2cnc(N)nc2N)cc(OC2CCC(OC)C2)c1-c1ccc(O)cc1 (stereo not shown) [Example 08-r, 5-[6-Ethoxy-2-(3-methoxy-cyclopentyloxy)-4′-hydroxy-biphenyl-4-ylmethyl]-pyrimidine-2,4-diamine]
MIC [1, 5]: 8 µg/mL (≈ 17.8 µM)
IC50 ([2]; Table 2): 37 nM
MIC ([3]; Table 2): 8 µg/mL (≈ 17.8 µM)
IC50 [4]: 1200 nM

CCOc1cc(Cc2cnc(N)nc2N)cc(OCC)c1-c1ccc(OC)cc1 [Example 05-b, 5-(2,6-Diethoxy-4′-methoxy-biphenyl-4-ylmethyl)-pyrimidine-2,4-diamine]
MIC [1, 5]: 4 µg/mL (≈ 10.1 µM)
IC50 ([2]; Table 2): 40 nM
MIC ([3]; Table 2): 16 µg/mL (≈ 40.6 µM)
IC50 [4]: 1500 nM

C=C(C)COc1cc(Cc2cnc(N)nc2N)cc(OCC)c1-c1ccc2c(c1)OCO2 [Example 10-f, 5-[4-Benzo[1.3]dioxol-5-yl-3-ethoxy-5-(2-methyl-allyloxy)-benzyl]-pyrimidine-2,4-diamine]
MIC [1, 5]: 8 µg/mL (≈ 18.4 µM)
IC50 ([2]; Table 2): 85 nM
MIC ([3]; Table 2): 8 µg/mL (≈ 18.4 µM)
IC50 [4]: 1800 nM

CCOc1cc(Cc2cnc(N)nc2N)cc(OS(=O)(=O)CC(C)(C)C)c1-c1ccc(N)c(F)c1 [Example 37-a, 2,2-Dimethyl-propane-1-sulphonic acid 4′-amino-4-(2,4-diamino-pyrimidin-5-ylmethyl)-6-ethoxy-3′-fluoro-biphenyl-2-yl ester]
MIC [1, 5]: 0.25 µg/mL (≈ 0.496 µM)
IC50 ([2]; Table 2): 4.5 nM
MIC ([3]; Table 2): 4 µg/mL (≈ 7.94 µM)
IC50 [4]: 550 nM

CCOc1cc(Cc2cnc(N)nc2N)cc(O[C@@H]2CCC[C@H]2CC#N)c1-c1ccc(O)cc1 (racemic) [Example 08-u, rac-(E)-{2-[4-(2,4-Diamino-pyrimidin-5-ylmethyl)-6-ethoxy-4′-hydroxy-biphenyl-2-yloxy]-cyclopentyl}-acetonitrile]
MIC Sp1/1 [1, 6]: 4 µg/mL (≈ 8.7 µM)
IC50 ([2]; Table 2): 150 nM
MIC Sa101 ([3]; Table 2): 8 µg/mL (≈ 17.4 µM)
IC50 [4, 7]: 1800 nM

CCOc1cc(Cc2cnc(N)nc2N)cc(OC2CCCC2)c1-c1cccc(N)c1 [Example 07-d, 5-(3′-Amino-6-cycloventloxy-2-ethoxy-biphenyl-4-ylmethyl)-pyrimidine-2,4-diamine]
MIC [1, 5]: 1 µg/mL (≈ 2.38 µM)
IC50 ([2]; Table 2): 8.2 nM
MIC ([3]; Table 2): 4 µg/mL (≈ 9.53 µM)
IC50 [4]: 680 nM

CCOc1cc(Cc2cnc(N)nc2N)cc(OCC)c1-c1cc(N)cc(F)c1 [Example 04-t, 5-(5′-Amino-2,6-diethoxy-3′-fluoro-biphenyl-4-ylmethyl)-pyrimidine-2,4-diamine]
MIC [1, 5]: 2 µg/mL (≈ 5.03 µM)
IC50 ([2]; Table 2): 31 nM
MIC ([3]; Table 2): 8 µg/mL (≈ 20.1 µM)
IC50 [4]: 1200 nM

CCOc1cc(Cc2cnc(N)nc2N)cc(OCC(F)(F)F)c1-c1cccc(N)c1 [Example 07-i, 5-[3′-Amino-6-ethoxy-2-(2,2,2-trifluoro-ethoxy)-biphenyl-4-ylmethyl]-pyrimidine-2,4-diamine]
MIC [1, 5]: 4 µg/mL (≈ 9.23 µM)
IC50 ([2]; Table 2): 28 nM
MIC ([3]; Table 2): 4 µg/mL (≈ 9.23 µM)
IC50 [4]: 900 nM

CCOc1cc(Cc2cnc(N)nc2N)cc(OCC)c1-c1ccc(O)c(C)c1 [Example 02-s, 4′-(2,4-Diamino-pyrimidin-5-ylmethyl)-2′,6′-diethoxy-3-methyl-biphenyl-4-ol]
MIC [1, 5]: 8 µg/mL (≈ 20.3 µM)
IC50 ([2]; Table 2): 83 nM
MIC ([3]; Table 2): 4 µg/mL (≈ 10.1 µM)
IC50 [4]: 2200 nM

CCOc1cc(Cc2cnc(N)nc2N)cc(OS(=O)(=O)CC(C)C)c1-c1ccc(N)cc1 [Example 36-c, 2-Methyl-propane-1-sulphonic acid 4′-amino-4-(2,4-diamino-pyrimidin-5-ylmethyl)-6-ethoxy-biphenyl-2-yl ester]
MIC [1, 5]: 0.5 µg/mL (≈ 1.06 µM)
IC50 ([2]; Table 2): 4.8 nM
MIC ([3]; Table 2): 2 µg/mL (≈ 4.24 µM)
IC50 [4]: 240 nM
